Format in all cases: binding
Assay [1] has as its target T1, Growth factor receptor-bound protein-2 (GRB2) (Homo sapiens, UniProt P62993). Description: SPR (GRB2 immobilized on CM5 chip); supported by competition ELISA with GST-GRB2 and cellulose nitrate filtration assay.
The target in assay [2] is T1, Growth factor receptor-bound protein-2 (GRB2). Description: SPR (GRB2 immobilized on CM5 chip); authors call conditions sub-par for this compound.
Assay [3] has the same target. Description: SPR (GRB2 immobilized on CM5 chip); authors call conditions sub-par; only two non-zero concentrations shown. An excerpt:
SPR (GRB2 immobilized on CM5 chip); authors call conditions sub-par; only two non-zero concentrations shown on Growth factor receptor-bound protein-2 (GRB2) | SPR data of NHD2-107 versus GRB2.

T1 sequence (P62993 whole entry): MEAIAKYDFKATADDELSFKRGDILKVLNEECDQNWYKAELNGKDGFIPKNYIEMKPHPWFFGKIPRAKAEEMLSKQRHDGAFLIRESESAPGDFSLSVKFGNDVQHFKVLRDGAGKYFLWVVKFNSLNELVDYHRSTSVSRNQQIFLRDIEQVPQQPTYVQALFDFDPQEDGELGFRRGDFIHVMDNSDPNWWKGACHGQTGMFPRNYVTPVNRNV

For orientation: Kd means the free concentration of one partner at which half of the binding sites on the other are occupied at equilibrium, for simple one-to-one binding. A lower Kd goes with tighter binding. As to `CC(=O)c1c(C)oc2nc3ccccc3nc12` [NHD2-15], binding in assay [1] was characterised by a dissociation constant (Kd) of 119 ± 2 µM.

On to `COC(=O)c1c(C)oc2nc3ccccc3nc12` [NHD2-92], for which the equilibrium dissociation constant (Kd) in assay [2] was 1000 ± 20 µM.

As to `CCOC(=O)c1c(-c2ccccc2)oc2nc3ccccc3nc12` [NHD2-107], the Kd in assay [3] was found to be 3400 ± 100 µM.

Compound `CCOC(=O)c1c(C)oc2nc3ccccc3nc12` [NHD2-114] had a Kd in assay [2] of 440 ± 7 µM.
